# Measured values reported in publication PMC7138307 (PLoS ONE, 2020).
# “Also recorded” adds a separate entry of the source.
# Experiments:
# FES = molecular target: T1, FES (Mus musculus, UniProt P16879); assay: In vivo target engagement, KiNativ ADP probe, mouse brain lysates; conditions: 75 mg/kg I.P., one hour, peptide LRADNTPVAVKSCR, Lys1
# T1 construct: homogenized brain lysates were labeled with Desthiobiotin-ADP-acyl phosphate probe; from tissue; host or cells: mouse cortical brain lysate
# T1 sequence (P16879 whole entry): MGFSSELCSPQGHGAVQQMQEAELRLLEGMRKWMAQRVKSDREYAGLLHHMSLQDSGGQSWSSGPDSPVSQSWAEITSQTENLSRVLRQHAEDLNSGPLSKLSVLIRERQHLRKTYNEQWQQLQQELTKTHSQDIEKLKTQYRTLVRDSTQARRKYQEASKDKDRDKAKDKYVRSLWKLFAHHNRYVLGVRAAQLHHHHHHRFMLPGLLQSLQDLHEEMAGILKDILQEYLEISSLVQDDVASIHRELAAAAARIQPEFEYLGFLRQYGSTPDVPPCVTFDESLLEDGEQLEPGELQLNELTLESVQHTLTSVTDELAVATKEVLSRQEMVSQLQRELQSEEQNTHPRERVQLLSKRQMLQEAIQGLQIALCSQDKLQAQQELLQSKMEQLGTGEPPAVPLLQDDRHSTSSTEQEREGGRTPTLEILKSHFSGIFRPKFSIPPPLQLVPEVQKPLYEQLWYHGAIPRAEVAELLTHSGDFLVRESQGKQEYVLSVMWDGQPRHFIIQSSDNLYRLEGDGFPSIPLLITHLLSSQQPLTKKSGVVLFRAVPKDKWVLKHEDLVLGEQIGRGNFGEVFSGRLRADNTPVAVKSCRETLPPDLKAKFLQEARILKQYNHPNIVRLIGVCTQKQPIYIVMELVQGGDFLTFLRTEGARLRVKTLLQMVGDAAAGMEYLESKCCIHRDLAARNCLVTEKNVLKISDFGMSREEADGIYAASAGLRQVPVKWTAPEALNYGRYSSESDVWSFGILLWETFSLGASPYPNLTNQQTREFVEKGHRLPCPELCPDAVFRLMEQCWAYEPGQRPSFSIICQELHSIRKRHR
# From the text: (§1) To determine both in vivo target engagement and identify any potential off-target kinases inhibited by BIIB-TTBKi, we used a combination of desthiobiotin-ATP/ADP probes to covalently bind and biotinylate the conserved lysine residues at the active site of protein kinases (ActivX-KiNativ; Kyorin Pharmaceuticals, Ltd, Tokyo Japan). […] Lysates were trypsin digested and desthiobiotinylated peptides were captured on streptavidin beads. A list of 269 unique peptides were quantified through LC-MS/MS parallel reaction monitoring method. Target engagement was calculated as the percentage of peptide signal lost after addition of BIIB-TTBKi when compared to the vehicle treated lysate. Using the ADP probe, we were able to detect a total of 150 kinases in the mouse cortical brain lysates (Fig 5A).
# (§2) Mice were euthanized one hour following injection and homogenized brain lysates were labeled with Desthiobiotin-ADP-acyl phosphate probe (ADP probe). Desthiobiotinylated peptides were captured on streptavidin beads and peptides were quantified through LC-MS/MS parallel reaction monitoring method. Target engagement was calculated as the percentage of peptide signal lost when compared to the vehicle treated lysate. (A) Visualization of the off-target effects of BIIB-TTBKi at 75mg/kg. The ADP probe labelled around 150 unique kinases in mouse cortical brain lysates.
# PIP4K2C = molecular target: T2, PIP4K2C (Mus musculus, UniProt Q91XU3); assay: as above; conditions: 75 mg/kg I.P., one hour, peptide TLVIKEVSSEDIADMHSNLSNYHQYIVK, ATP site
# T2 construct: from tissue; host or cells: mouse cortical brain lysate
# T2 sequence (Q91XU3 1-421): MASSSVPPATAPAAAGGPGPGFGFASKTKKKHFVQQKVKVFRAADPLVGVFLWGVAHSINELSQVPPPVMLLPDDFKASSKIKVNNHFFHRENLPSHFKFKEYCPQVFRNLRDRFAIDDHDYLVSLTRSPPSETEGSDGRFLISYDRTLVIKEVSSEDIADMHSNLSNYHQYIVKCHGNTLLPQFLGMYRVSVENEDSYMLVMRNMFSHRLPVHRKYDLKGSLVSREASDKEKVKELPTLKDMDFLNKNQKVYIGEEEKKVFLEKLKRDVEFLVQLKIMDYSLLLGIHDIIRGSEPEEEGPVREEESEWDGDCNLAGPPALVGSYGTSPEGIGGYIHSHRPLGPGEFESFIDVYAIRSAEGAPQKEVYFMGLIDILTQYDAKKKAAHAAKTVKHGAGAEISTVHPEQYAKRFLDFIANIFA
# From the text: as §1, §2
# TTBK1, TTBK2 = assay: as above; conditions: 75 mg/kg I.P., one hour, peptide DIKPSNFAMGR, Lys2
# From the text: as §1, §2
# tau phosphorylation = assay: Isoflurane induced hypothermia tau phosphorylation in C57Bl/6 mice (western blot of cortex); format: in vivo, mouse
# From the text: Under basal conditions, tau phosphorylation is tightly regulated by opposing kinase and phosphatase activities. In mice, isoflurane induced hypothermia causes a dramatic increase in tau phosphorylation through the temperature dependent inhibition of PP2A [40]. In the current experiment, we used isoflurane induced hypothermia in C57Bl/6 mice to increase tau phosphorylation in order to test the effects of TTBK1 inhibition. By using wild-type mice we ensured that both the levels of tau and tau kinases were at endogenous levels. […] Based on our in vitro potency assays and pharmacokinetic parameters, the highest dose used (75 mg/kg) was projected to achieve an IC80 of TTBK1 inhibition for the one hour of hypothermia treatment (S3 Fig). […] This further confirms that S422, a site implicated in the early stages of neurofibrillary tangle formation in disease, is likely solely phosphorylated by TTBK1 in the brain.
# Fig 6 Acute TTBK1 inhibition reduces tau phosphorylation at disease relevant sites in vivo. […] Phosphorylation signal was normalized to the level of total tau in each sample. Data is represented as the mean +/- SEM. For each phospho-epitope, treatment significance was determined first by one-way ANOVA between all groups; For each dose group, Tukey’s comparison was used to determine significance versus the Vehicle treated control. (B) Correlation within each brain sample between the level of tau phosphorylation at S422 and the measured concentration of free drug (R^2 = 0.4254; p = 0.0569).
# Samples were lysed in Pierce RIPA lysis and extraction buffer (Thermo Fisher Scientific, Waltham, MA) supplemented with 1% Halt protease and phosphatase inhibitor cocktail (Thermo Fisher Scientific, Waltham, MA) and centrifuged at 14000 x g for 20 min at 4°C to clear the lysate. Protein concentrations were determined using the Direct Detect Infrared Spectrometer (EMD Millipore Corp., Burlington, MA) and 10μg of each sample was denatured in 6X SDS sample buffer (Boston Bioproducts, Ashland, MA) for 7 minutes at 90°C. Proteins were loaded into a Criterion 7.5% tris-glycine gel (Bio-Rad, Hercules, CA) and separated by SDS-PAGE at 120V for 120 minutes. The gel was transferred to an IBlot2 nitrocellulose membrane (Invitrogen, Carlsbad, CA), blocked with TBST blocking buffer (Li-cor Biosciences, Lincoln, NE) for 1 hour, and washed three times with TBST. The membrane was probed with primary antibodies (1:1000 dilution) in antibody dilution buffer (1:1 TBST blocking buffer and 1X TBST) overnight at 4°C. The following antibodies were used for immunoblotting: TTBK1 (Cat# PA5-20686, Invitrogen, Carlsbad, CA), Tau-5 (Cat# ab80579, Abcam, Cambridge, UK), phospho-Tau S422 (Cat# ab79415, Abcam, Cambridge, UK), S198 (Cat# ab79540, Abcam, Cambridge, UK), AT8 S202/T205 (Cat# MN1020, Invitrogen, Carlsbad, CA), S214 (Cat# ab170892, Abcam, Cambridge, UK), AT180 T231 (Cat# MN1040, Invitrogen, Carlsbad, CA), S262 (Cat# ab131354, Abcam, Cambridge, UK), S356 (Cat# ab75603, Abcam, Cambridge, UK), S396 (Cat# ab109390, Abcam, Cambridge, UK), GAPDH (Cat# 5174S, Cell Signaling Technology, Danvers, MA), and β-actin (Cat# 926–42212, Li-cor Biosciences, Lincoln, NE). The blot was then washed in triplicate with TBST and incubated for 1 hour with secondary antibody (1:10,000 dilution of IRDye 800 anti-mouse IgG and IRDye 680 anti-rabbit IgG, Li-cor Biosciences, Lincoln, NE) in antibody dilution buffer. After a final triplicate wash with TBST, the blot was visualized using the Odyssey CLx imaging system (Li-cor Biosciences, Lincoln, NE).
# Seven-week-old male C576Bl/6 mice were used for all hypothermia experiments (Charles River Laboratories, Wilmington, MA). Hypothermia was induced by exposure to vaporized isoflurane in an anesthetic induction chamber attached to a V-1 Tabletop Anesthesia System (VetEquip, Inc., Livermore, CA). The mice remained in the chamber for 60 minutes with a constant isoflurane concentration of 2%. […]
structure (smiles),measurement,setting,value
CCC(C)(O)C#Cc1cc2c(ccn2-c2ccnc(N)n2)cn1 (stereo not drawn) [BIIB-TTBK1i],Percent Inhibition with BIIB-TTBKi at 75mpk,FES,50.6%
same,Percent Inhibition with BIIB-TTBKi at 75mpk,PIP4K2C,86.3%
same,Percent Inhibition with BIIB-TTBKi at 75mpk,"TTBK1, TTBK2",82%
same,average reduction in tau phosphorylation at S422,"tau phosphorylation; 25mg/kg I.P., one hour, p = 0.0213 vs Vehicle",60%
same,hypothermia induced tau phosphorylation at S422,"tau phosphorylation; 50mg/kg I.P., one hour, p = 0.0005 vs Vehicle",completely restored to basal levels; also recorded: complete reversal
same,tau phosphorylation at AT180 (Thr231),tau phosphorylation; 75mg/kg I.P. p = 0.0002 vs Vehicle (50mg/kg p = 0.0005; 25mg/kg p = 0.0571),significant decrease
same,tau phosphorylation at S396,tau phosphorylation; 75mg/kg I.P. p = 0.0002 vs Vehicle (50mg/kg p = 0.011; 25mg/kg p = 0.8492),significant decrease
same,tau phosphorylation at AT8 (S202/T205),tau phosphorylation; 75mg/kg I.P. p = 0.0066 vs Vehicle (50mg/kg p = 0.5391; 25mg/kg p>0.999),significant decrease
same,hypothermia induced tau phosphorylation at S422,"tau phosphorylation; 75mg/kg I.P., one hour, p = 0.0007 vs Vehicle",completely restored to basal levels; also recorded: significant decrease
